From patent US5871946A, “Method for determining activity of enzymes in metabolically active whole cells” (priority 1995, dated 1999)
Several values for one entry are separate records, joined by “and”; a condition that tells them apart may be missing. Equal entries are not always repeated. Numbered stars: 1 amine (or outer) side, 2 acyl side, 3 side chain; on linkers, the order of the positions; unused ones are H or OH. Bridge positions count the residues as written; N and C are the ends. Peptide text beside a SMILES is read from it. I, II: the chains in the order shown. Rhodamine110 = O=C1OC2(c3ccc(N[*:1])cc3Oc3cc(N[*:2])ccc32)c2ccccc21

Columns and labels:
Assay type in all cases: cell-based, human
[1] = system: cells of normals and HIV + patients; experiment: Substrate panel in cells of normals and HIV+ patients, possible TB infection (Table 4)
Protocol: A panel of assay compounds are assembled consisting of Ala-aminopeptidase and Lys-aminopeptidase, Dipeptidyl peptidase IV (Ala-Ala)2 rhodamine 110 and Cathepsin D to indicate possible TB infection in AIDS related cases.
A panel of enzymatic substrates is performed consisting of Ala-aminopeptidase and Lys-aminopeptidase, Dipeptidyl peptidase IV (Ala-Ala)2 rhodamine 110 and Cathepsin D to indicate possible TB infection in AIDS related cases.

MONOCYTES = experiment: Disease to normal ratio of enzyme activity, monocytes (Table 5)
Excerpt: (§1) A normal in house adult donor pool was drawn, recording sex and determining that no known disease state was present at the time of sample draw. Criteria for rejecting samples included patients under medication, patients with infection or inflammation of any type, colds and flu as well as any known medical illness such as cancer, heart ailment and high blood pressure. A donor list of 75 patients has been developed and a mean and 2 sd range established. A subgroup of "super normals" was developed from this list by examining the 75 patients to determine which group falls closest to the mean for all enzymes in all cell types tested. These patients were used as the "wellness index" or best group of "normalcy" patients. If a study required the use of children or newborns then this same format was used to develop a data base for these age groups.

LYMPHOCYTES = experiment: Disease to normal ratio of enzyme activity, lymphocytes (Table 5)
Excerpt: as §1

[2] = Inflam. Bowel Dis., monocytes section

Structure (SMILES) | MEAN DELTA FL ([1]; HIV + PATIENTS) | MEAN DELTA FL ([1]; NORMALS) | Ratio of disease to normal (MONOCYTES; [2]) | Ratio of disease to normal (MONOCYTES; JRA, monocytes) | Ratio of disease to normal (MONOCYTES; Kawasaki's, monocytes) | Ratio of disease to normal (MONOCYTES; Lupus, monocytes) | Ratio of disease to normal (MONOCYTES; Rheumatic Fever, monocytes) | Ratio of disease to normal (LYMPHOCYTES; Dermatomyositis) | Ratio of disease to normal (LYMPHOCYTES; Inflam. Bowel Dis.) | Ratio of disease to normal (LYMPHOCYTES; JRA) | Ratio of disease to normal (LYMPHOCYTES; Kawasaki's) | Ratio of disease to normal (LYMPHOCYTES; Lupus) | Ratio of disease to normal (LYMPHOCYTES; Rheumatic Fever) | MEAN DELTA FL ([1]; HIV + PATIENTS, listed as ALA--GLY*) | MEAN DELTA FL ([1]; NORMALS, listed as ALA--GLY*) | Ratio of disease to normal (MONOCYTES; Dermatomyositis, monocytes) | MEAN DELTA FL ([1]; HIV + PATIENTS, listed as LYS--ALA^1) | MEAN DELTA FL ([1]; NORMALS, listed as LYS--ALA^1)
NC(=O)CC[C@H](N)C(=O)N[C@@H](CO)C(=O)Nc1ccc2c(c1)Oc1cc(NC(=O)[C@H](CO)NC(=O)[C@@H](N)CCC(N)=O)ccc1C21OC(=O)c2ccccc21 (relative stereo) [GLN--SER*] | 13.7 and 12.7 | 11.9 and 6.1 |  |  |  |  |  |  |  |  |  |  |  |  |  |  |  | 
C[C@H](N)C(=O)Nc1ccc2c(c1)Oc1cc(NC(=O)[C@H](C)N)ccc1C21OC(=O)c2ccccc21 [ALA, (Ala)2 Rho 110] |  |  | 1.43 | 1.31 | 1.36 | 6.17 | 1.08 | 1.16 | 1.53 | 1.59 | 1.05 | 1.16 | 1.18 |  |  |  |  | 
C[C@H](N)C(=O)NCC(=O)Nc1ccc2c(c1)Oc1cc(NC(=O)CNC(=O)[C@H](C)N)ccc1C21OC(=O)c2ccccc21 [ALA--GLY****] | 39.9 | 48.0 |  |  |  |  |  |  |  |  |  |  |  | 29.7 | 31.6 |  |  | 
O=C1OC2(c3ccc(OP(=O)(O)O)cc3Oc3cc(OP(=O)(O)O)ccc32)c2ccccc21 [DPO4, (PO4)2 fluorescein] |  |  |  | 1.13 |  |  | 1.09 |  |  |  |  |  |  |  |  |  |  | 
CC(=O)Oc1ccc2c(c1)Oc1cc(OC(C)=O)ccc1C21OC(=O)c2ccccc21 [FDA, fluorescein diacetate, reference compound] |  |  |  | 1.55 |  | 1.01 |  | 1.06 |  | 1.17 |  | 1.01 |  |  |  |  |  | 
CC(=O)Oc1ccc2c(c1)Oc1cc(OC(C)=O)ccc1C21OC(=O)c2ccccc21 [FDA-NAF, reference compound] |  |  | 1.11 | 0.35 | 0.58 | 0.83 | 0.89 | 1.14 | 0.89 | 0.21 | 0.30 | 0.74 | 0.97 |  |  | 1.03 |  | 
C[C@H](NC(=O)CNC(=O)[C@H](Cc1ccccc1)NC(=O)CN)C(=O)Nc1ccc2c(c1)Oc1cc(NC(=O)[C@H](C)NC(=O)CNC(=O)[C@H](Cc3ccccc3)NC(=O)CN)ccc1C21OC(=O)c2ccccc21 [GFGA, (Gly-Phe-Gly-Ala)2 Rho 110] (I: H-GFGA / II: H-GFGA; linker I:C-II:C via Rhodamine110) |  |  | 3.42 | 2.29 | 1.77 | 2.18 | 1.36 | 2.14 | 2.16 | 2.03 | 2.15 | 1.25 | 2.14 |  |  | 2.01 |  | 
NCC(=O)Nc1ccc2c(c1)Oc1cc(NC(=O)CN)ccc1C21OC(=O)c2ccccc21 [GLY, (Gly)2 Rho 110] |  |  | 1.84 | 1.11 | 3.83 |  | 2.06 |  | 1.97 |  | 1.94 | 1.64 | 2.09 |  |  | 1.01 |  | 
C[C@H](NC(=O)[C@@H](N)CCCCN)C(=O)Nc1ccc2c(c1)Oc1cc(NC(=O)[C@H](C)NC(=O)[C@@H](N)CCCCN)ccc1C21OC(=O)c2ccccc21 [KA, (Lys-Ala)2 Rho 110] |  |  | 1.95 |  | 2.22 | 6.93 | 2.39 | 1.39 | 1.75 |  | 1.53 | 1.93 | 1.19 |  |  | 1.04 |  | 
C[C@H](NC(=O)[C@@H](N)CCCCN)C(=O)Nc1ccc2c(c1)Oc1cc(NC(=O)[C@H](C)NC(=O)[C@@H](N)CCCCN)ccc1C21OC(=O)c2ccccc21 [KA-M, (Lys-Ala)2 Rho 110] |  |  |  | 12.14 | 7.08 | 14.08 | 15.36 | 1.93 | 1.63 | 1.46 | 1.32 | 1.06 | 2.07 |  |  | 1.55 |  | 
C[C@H](NC(=O)[C@@H](N)CCCCN)C(=O)Nc1ccc2c(c1)Oc1cc(NC(=O)[C@H](C)NC(=O)[C@@H](N)CCCCN)ccc1C21OC(=O)c2ccccc21 [LYS--ALA^2] | 7.9 | 7.6 |  |  |  |  |  |  |  |  |  |  |  |  |  |  | 121.5 | 112.6
N=C(N)NCCC[C@H](N)C(=O)NCC(=O)N[C@@H](CCC(=O)O)C(=O)N[C@@H](CO)C(=O)Nc1ccc2c(c1)Oc1cc(NC(=O)[C@H](CO)NC(=O)[C@H](CCC(=O)O)NC(=O)CNC(=O)[C@@H](N)CCCNC(=N)N)ccc1C21OC(=O)c2ccccc21 (stereo partly drawn) [RGES, (Arg-Gly-Glu-Ser)2 Rho 110] (I: H-RGES / II: H-RGES; linker I:C-II:C via Rhodamine110) |  |  | 6.02 | 3.98 | 4.65 | 3.03 | 6.52 | 2.06 | 1.96 | 1.43 | 1.43 | 1.84 | 2.04 |  |  | 5.22 |  | 
CC(C)[C@H](N)C(=O)N[C@@H](CCCCN)C(=O)Nc1ccc2c(c1)Oc1cc(NC(=O)[C@H](CCCCN)NC(=O)[C@@H](N)C(C)C)ccc1C21OC(=O)c2ccccc21 [VK, (Val-Lys)2 Rho 110] |  |  | 3.08 | 5.94 | 5.38 | 1.64 | 1.32 | 1.39 | 1.08 |  | 1.19 | 1.25 |  |  |  | 1.42 |  | 
CC(C)[C@H](N)C(=O)N[C@@H](CCCCN)C(=O)Nc1ccc2c(c1)Oc1cc(NC(=O)[C@H](CCCCN)NC(=O)[C@@H](N)C(C)C)ccc1C21OC(=O)c2ccccc21 [VK-M, (Val-Lys)2 Rho 110 (modified)] |  |  | 1.41 | 3.49 |  | 11.37 | 8.67 |  |  | 7.71 |  |  |  |  |  | 3.45 |  | 
O=C(NCC(=O)N1CCC[C@H]1C(=O)Nc1ccc2c(c1)Oc1cc(NC(=O)[C@@H]3CCCN3C(=O)CNC(=O)OCc3ccccc3)ccc1C21OC(=O)c2ccccc21)OCc1ccccc1 [Z-GP, (carbobenzyloxycarbonyl-Gly-Pro)2 Rho 110] |  |  | 1.64 | 1.34 | 4.06 | 1.88 | 3.56 | 1.73 | 1.73 | 1.29 |  | 1.93 | 3.23 |  |  |  |  | 
O=C(NCC(=O)N1CCC[C@H]1C(=O)Nc1ccc2c(c1)Oc1cc(NC(=O)[C@@H]3CCCN3C(=O)CNC(=O)OCc3ccccc3)ccc1C21OC(=O)c2ccccc21)OCc1ccccc1 [Z-GP-M, (carbobenzyloxycarbonyl-Gly-Pro)2 Rho 110 (modified)] |  |  | 3.33 | 1.79 | 4.47 | 1.92 | 2.99 | 3.45 |  |  | 3.44 | 2.09 | 4.09 |  |  | 3.05 |  | 
C[C@@H](O)[C@H](NC(=O)OCc1ccccc1)C(=O)N1CCC[C@H]1C(=O)Nc1ccc2c(c1)Oc1cc(NC(=O)[C@@H]3CCCN3C(=O)[C@@H](NC(=O)OCc3ccccc3)[C@@H](C)O)ccc1C21OC(=O)c2ccccc21 [Z-TP6.5, (carbobenzyloxycarbonyl-Thr-Pro)2 Rho 110 (pH 6.5)] |  |  | 2.83 | 8.33 |  | 2.29 | 5.37 | 3.87 | 3.03 | 2.89 | 5.85 |  | 7.19 |  |  | 3.12 |  | 
